Assay results: US10513519B2, “Solid forms of (1S,4S)-4-(2-(((3S,4R)-3-fluorotetrahydro-2H-pyran-4-yl)amino)-8-((2,4,6-trichlorophenyl)amino)-9H-purin-9-yl)-1-methylcyclohexane-1-carboxamide and methods of their use” (Signal Pharmaceuticals, LLC, priority 2016, dated 2019)

Test system: DUSP4, DUSP6, cyclin D1, c-Myc, YAP in Colo 205 (BRAF V600E)
Experiment: Western blot of MAPK, Wnt and Hippo pathway markers in Colo 205
Assay type: cell-based
Method: The ability of Compound 1 to inhibit MAPK signaling was assessed by determining the DUSP4 and DUSP6 protein expression. Colon cancer cell line Colo 205 (BRAF V600E) cultures were treated with DMSO or increasing concentrations of Compound 1 for 2, 8 or 24 h. Proteins were extracted from treated cells and analyzed by Western blot using antibodies against DUSP4, DUSP6, cyclin D1, c-Myc, YAP or β-actin. RNAs were extracted using Cell-To-CT kit and quantitative PCR was performed with probes specific for DUSP4, DUSP6, SPRY2, c-Myc and cyclin D1. Specific probes for β-actin were used for normalization.
Compound 1 modulation of MAPK, WNT/β-catenin, and Hippo/YAP pathway markers was evaluated by standard Western blotting. LOX-IMVI, SW48, and Colo-205 cells were plated in 6-well plates at a density of 250,000 cells per well and were allowed to attach overnight. Compound 1 was added to cells at concentrations of 0.03, 0.1, 0.3, 1, and 3 μM for durations of 2, 8, and 24 hours. […] The cell lysates were heated in sodium dodecyl sulfate (SDS)-sample buffer and 40 μg of cell lysate per condition were loaded onto gels and separated using SDS polyacrylamide gel electrophoresis (PAGE). Protein was transferred to nitrocellulose membrane, and immunoblotted with anti DUSP4, DUSP6, cMyc, Cyclin D1, YAP, AXIN2, HDAC5 (phospho S498), and β-actin antibodies. Membranes were scanned on the Licor Odyssey system.

C[C@]1(C(N)=O)CC[C@@H](n2c(Nc3c(Cl)cc(Cl)cc3Cl)nc3cnc(N[C@@H]4CCOC[C@H]4F)nc32)CC1 [Compound 1, cis-4-[2-{[(3S,4R)-3-fluorooxan-4-yl]amino}-8-(2,4,6-trichloroanilino)-9H-purin-9-yl]-1-methylcyclohexane-1-carboxamide]
cyclin D1 and c-Myc RNA and protein levels (Colo 205): significantly decreased | YAP protein (Colo 205, 24 h): decreased YAP protein | DUSP4 and DUSP6 protein (Colo 205, as early as 2 h, sustained through 24 h): significantly reduced
